From article PMC8428568, “Discovery of re-purposed drugs that slow SARS-CoV-2 replication in human cells” (PLoS Pathogens, 2021)
Structures can show the parent of a compound that is named as a salt.

Columns and labels:
[1] = system: Vero cells; settings: Vero cells, 10 μM; 1 = DMSO-treated infected cells
[2] = system: SARS-CoV-2-ΔOrf7a-NLuc virus; test: microbe, parasite or virus in culture; assay type: cell-based; settings: for activity at 10 µM: Severe acute respiratory syndrome coronavirus 2, Vero, 72 h, read-out: Mean relative luminescence (n=4)
[3] = system: recombinant NLuc; assay type: biochemical; settings: for Relative Recombinant NLUC: recombinant NLuc activity relative to DMSO; for Reads Counts per second (read 1) / Reads Counts per second (read 4) / Reads Counts per second (read 2) / Reads Counts per second (read 3): recombinant NLuc; for Reads Counts per second (read 1): first read column; for Reads Counts per second (read 4): fourth read column; for Reads Counts per second (read 3): third read column
[4] = […], 1 = untreated, 0 = total inhibition

Compound | PrestoBlue relative viability [1] | activity at 10 µM [2, 4] [%] | Mean relative luminescence (n=4) [2, 4] | % activity in Vero 100PFU screen [2] [%] | Relative Recombinant NLUC [3] | Reads Counts per second (read 1) [3] [Counts per second] | Reads Counts per second (read 4) [3] [Counts per second] | Reads Counts per second (read 2) [3] [Counts per second] | Reads Counts per second (read 3) [3] [Counts per second]
C#C[C@]1(O)CC[C@H]2[C@@H]3CCC4=CCCC[C@@H]4[C@H]3C(=C)C[C@@]21CC [Desogestrel] | 0.6657 | 14.5 |  |  |  |  |  |  | 
CCN1C[C@H](C)n2c(c(O)c3c(=O)n(Cc4ccc(F)c(Cl)c4)nc(C(=O)NC)c32)C1=O [MK-2048] | 2.267 |  | 0.000491 |  |  |  |  |  | 
Cc1cc(Nc2cc(CN3CCOCC3)c3nc(C)c(Cc4ccc(Cl)cc4F)n3n2)n[nH]1 [LY2784544] | 0.7859 | 0.145 |  |  |  |  |  |  | 
Nc1cccc2c1CN(C1CCC(=O)NC1=O)C2=O (stereo not drawn) [Lenalidomide (CC-5013), Lenalidomide] | 2.058 | 0.218 |  |  |  |  |  |  | 
(+)-Catechin hydrate |  |  |  | 160 | 0.9621 | 362209 | 367703 | 357899 | 366108
Bivalirudin Trifluoroacetate |  |  |  | 172 | 0.8139 | 309590 | 301908 | 311058 | 307409
O=C(O)/C=C/c1ccc(O)c(O)c1 [Caffeic acid] |  |  |  | 173 | 1.054 | 390077 | 403178 |  | 399891
Cn1c(=O)cc(N2CCC[C@@H](N)C2)n(Cc2ccccc2C#N)c1=O [Alogliptin Benzoate] |  |  |  | 166 | 0.863 | 316906 | 323679 | 332493 | 331161
NC(=O)CC[C@H](N)C(=O)O [L-Glutamine] |  |  |  | 204 | 0.9419 | 349150 | 350740 |  | 361792
O=C([O-])CC(O)(CC(=O)[O-])C(=O)[O-].[Li+].[Li+].[Li+] [Lithium Citrate] |  |  |  | 205 | 0.9217 | 343238 | 343490 |  | 350985
O=c1c(-c2ccc(O)cc2)coc2cc(O)ccc12 [Daidzein] |  |  |  | 161 | 0.9154 | 339091 | 346126 |  | 350216
Cc1[nH]cnc1CN1CCc2c(c3ccccc3n2C)C1=O [Alosetron Hydrochloride] |  |  |  | 177 | 0.8898 | 328498 | 339698 | 338671 | 337783
C=CCNC1=C2C[C@@H](C)C[C@H](OC)[C@H](O)[C@@H](C)/C=C(\C)[C@H](OC(N)=O)[C@@H](OC)/C=C\C=C(/C)C(=O)NC(=CC1=O)C2=O [17-AAG (KOS953), 17-AAG] |  |  |  | 209 | 0.9121 | 339450 | 348179 | 347084 | 343744
OB1OCc2cc(F)ccc21 [AN-2690] |  |  |  | 171 | 0.8709 | 329173 | 324160 | 329953 | 332892
Cc1ccnc2c1NC(=O)c1cccnc1N2C1CC1 [Nevirapine] |  |  |  | 187 | 0.9932 | 371882 | 373316 |  | 379254
CNCCC(Oc1ccc(C(F)(F)F)cc1)c1ccccc1.Cl (stereo not drawn) [Fluoxetine HCl] |  |  |  | 2.12 |  | 317425 | 307707 |  | 314163
CC(C)c1cc(C(=O)N2Cc3ccc(CN4CCN(C)CC4)cc3C2)c(O)cc1O [AT13387] |  |  |  | 191 | 0.7978 | 289397 | 303901 | 302902 | 309451
C[C@H]1CN(C[C@H](Cc2ccccc2)C(=O)NCC(=O)O)CC[C@@]1(C)c1cccc(O)c1 [Alvimopan] |  |  |  | 169 | 0.9202 | 338215 | 352328 | 350063 | 350082
NC(=O)c1ccc[n+]([C@@H]2O[C@H](COP(=O)([O-])OP(=O)(O)OC[C@H]3O[C@@H](n4cnc5c(N)ncnc54)[C@H](O)[C@@H]3O)[C@@H](O)[C@H]2O)c1 [NAD+] |  |  |  | 164 | 1.016 | 385544 | 376264 |  | 386401
